Data taken from the NIST ThermoML archive (doi:10.1016/j.jct.2012.02.028).
± gives the expanded uncertainty stated by the source.

Experiment: molar heat capacity at constant pressure
Conditions: 101.33 kPa, Crystal, Vacuum adiabatic calorimetry

O=C([O-])[O-].[Zn+2] [zinc(II) carbonate]
Conditions	molar heat capacity at constant pressure [J/K/mol]
4.397 K	0.009408 ± 0.0078
4.399 K	0.007545 ± 0.0078
4.757 K	0.006774 ± 0.0078
4.774 K	0.006545 ± 0.0078
5 K	0.00773 ± 0.01
5.101 K	0.008038 ± 0.0078
5.155 K	0.008164 ± 0.0078
5.346 K	0.01084 ± 0.0078
5.423 K	0.0117 ± 0.0078
5.582 K	0.01132 ± 0.0078
5.688 K	0.00813 ± 0.0078
5.816 K	0.01409 ± 0.0078
5.946 K	0.01317 ± 0.0078
6.06 K	0.0142 ± 0.0078
6.285 K	0.01382 ± 0.0078
6.398 K	0.01585 ± 0.0079
6.723 K	0.01601 ± 0.0079
6.824 K	0.01961 ± 0.0079
7.156 K	0.02326 ± 0.0079
7.254 K	0.02331 ± 0.0079
7.601 K	0.02683 ± 0.0079
7.692 K	0.02785 ± 0.0079
8.054 K	0.03096 ± 0.0079
8.134 K	0.03204 ± 0.008
8.509 K	0.03516 ± 0.008
8.576 K	0.03774 ± 0.008
8.961 K	0.04103 ± 0.008
9.021 K	0.04305 ± 0.008
9.412 K	0.0479 ± 0.008
9.468 K	0.05013 ± 0.0081
9.862 K	0.05547 ± 0.0081
9.915 K	0.05829 ± 0.0081
10 K	0.05961 ± 0.01
10.54 K	0.07294 ± 0.0082
10.59 K	0.07477 ± 0.0082
11.45 K	0.09358 ± 0.0083
11.5 K	0.09604 ± 0.0083
12.37 K	0.1193 ± 0.0084
12.41 K	0.1215 ± 0.0084
13.29 K	0.1517 ± 0.009
13.33 K	0.153 ± 0.009
14.22 K	0.1928 ± 0.0097
14.26 K	0.193 ± 0.0097
15 K	0.2346 ± 0.012
15.15 K	0.245 ± 0.011
15.18 K	0.2446 ± 0.011
16.08 K	0.2992 ± 0.012
16.12 K	0.2986 ± 0.012
17.02 K	0.3595 ± 0.013
17.05 K	0.3608 ± 0.013
17.97 K	0.4461 ± 0.016
17.99 K	0.4463 ± 0.016
18.91 K	0.535 ± 0.018
18.93 K	0.5407 ± 0.018
19.85 K	0.6305 ± 0.02
19.88 K	0.6346 ± 0.021
20 K	0.6547 ± 0.014
21.27 K	0.8212 ± 0.026
21.29 K	0.8243 ± 0.026
23.14 K	1.091 ± 0.033
23.17 K	1.096 ± 0.033
25 K	1.427 ± 0.017
25.06 K	1.439 ± 0.043
26.95 K	1.841 ± 0.054
28.85 K	2.31 ± 0.067
30 K	2.613 ± 0.045
30.77 K	2.836 ± 0.087
32.69 K	3.401 ± 0.1
34.62 K	4.038 ± 0.12
35 K	4.162 ± 0.048
36.33 K	4.607 ± 0.14
36.56 K	4.711 ± 0.14
38.5 K	5.446 ± 0.16
38.58 K	5.466 ± 0.16
40 K	6.03 ± 0.052
40.52 K	6.253 ± 0.047
42.46 K	7.047 ± 0.05
44.41 K	7.863 ± 0.054
45 K	8.122 ± 0.056
46.36 K	8.699 ± 0.057
48.32 K	9.572 ± 0.061
50 K	10.39 ± 0.06
50.28 K	10.5 ± 0.065
52.24 K	11.48 ± 0.069
54.21 K	12.47 ± 0.074
55 K	12.79 ± 0.07
56.18 K	13.4 ± 0.078
58.15 K	14.28 ± 0.082
60 K	15.28 ± 0.07
60.13 K	15.34 ± 0.087
62.1 K	16.36 ± 0.091
64.08 K	17.36 ± 0.096
65 K	17.8 ± 0.08
66.07 K	18.36 ± 0.1
68.03 K	19.3 ± 0.1
69.94 K	20.27 ± 0.11
70 K	20.32 ± 0.08
72.36 K	21.49 ± 0.12
75 K	22.79 ± 0.09
75.35 K	22.97 ± 0.12
78.35 K	24.46 ± 0.13
79.92 K	25.19 ± 0.13
80 K	25.24 ± 0.09
83.21 K	26.77 ± 0.089
85 K	27.63 ± 0.1
86.23 K	28.21 ± 0.092
89.26 K	29.61 ± 0.096
90 K	29.96 ± 0.23
92.3 K	31 ± 0.18
95 K	32.21 ± 0.23
95.35 K	32.37 ± 0.18
98.41 K	33.68 ± 0.18
100 K	34.37 ± 0.23
101.48 K	34.99 ± 0.18
104.55 K	36.23 ± 0.18
105 K	36.41 ± 0.24
107.64 K	37.47 ± 0.19
110 K	38.38 ± 0.24
110.74 K	38.65 ± 0.19
113.84 K	39.83 ± 0.19
115 K	40.26 ± 0.24
116.95 K	40.98 ± 0.19
120 K	42.07 ± 0.24
120.07 K	42.09 ± 0.2
123.2 K	43.18 ± 0.2
126.34 K	44.26 ± 0.2
129.51 K	45.31 ± 0.2
130 K	45.47 ± 0.25
132.66 K	46.33 ± 0.2
135.83 K	47.34 ± 0.2
139 K	48.32 ± 0.2
140 K	48.63 ± 0.25
142.19 K	49.32 ± 0.21
145.38 K	50.23 ± 0.21
148.58 K	51.14 ± 0.21
150 K	51.6 ± 0.25
151.79 K	52.15 ± 0.21
155.01 K	53.02 ± 0.21
158.25 K	53.93 ± 0.21
160 K	54.36 ± 0.25
161.49 K	54.75 ± 0.22
164.72 K	55.64 ± 0.22
167.92 K	56.45 ± 0.22
170 K	56.93 ± 0.26
171.08 K	57.17 ± 0.22
174.21 K	57.91 ± 0.22
177.3 K	58.72 ± 0.22
180 K	59.33 ± 0.26
180.39 K	59.37 ± 0.23
183.43 K	60.04 ± 0.23
186.44 K	60.81 ± 0.23
189.44 K	61.49 ± 0.23
190 K	61.57 ± 0.26
192.42 K	62.17 ± 0.23
195.37 K	62.73 ± 0.23
198.3 K	63.33 ± 0.23
200 K	63.68 ± 0.26
201.2 K	63.91 ± 0.23
204.09 K	64.5 ± 0.23
206.97 K	65.04 ± 0.24
209.83 K	65.68 ± 0.24
210 K	65.75 ± 0.27
212.67 K	66.32 ± 0.24
215.51 K	66.8 ± 0.24
218.32 K	67.43 ± 0.24
220 K	67.73 ± 0.27
221.12 K	67.91 ± 0.24
223.9 K	68.47 ± 0.24
226.71 K	68.96 ± 0.24
229.46 K	69.59 ± 0.24
230 K	69.62 ± 0.27
232.21 K	70.19 ± 0.25
234.93 K	70.69 ± 0.25
237.65 K	71.17 ± 0.25
240 K	71.45 ± 0.27
240.37 K	71.48 ± 0.25
243.07 K	71.89 ± 0.25
245.76 K	72.45 ± 0.25
248.45 K	72.82 ± 0.25
250 K	73.2 ± 0.27
251.12 K	73.38 ± 0.25
253.79 K	73.81 ± 0.25
256.45 K	74.15 ± 0.25
259.09 K	74.66 ± 0.25
260 K	74.88 ± 0.27
261.74 K	75.21 ± 0.26
264.38 K	75.75 ± 0.26
267.01 K	76.21 ± 0.26
269.71 K	76.37 ± 0.26
270 K	76.38 ± 0.28
272.34 K	76.67 ± 0.26
273.15 K	76.84 ± 0.28
274.96 K	77.02 ± 0.26
277.57 K	77.36 ± 0.26
280 K	77.83 ± 0.28
280.18 K	77.77 ± 0.26
282.78 K	78.17 ± 0.26
285.37 K	78.56 ± 0.26
287.95 K	78.94 ± 0.26
290 K	79.24 ± 0.28
290.53 K	79.31 ± 0.26
293.11 K	79.67 ± 0.26
295.68 K	80.03 ± 0.27
298.15 K	80.36 ± 0.28
298.24 K	80.38 ± 0.27
300 K	80.6 ± 0.28
300.8 K	80.74 ± 0.27
303.36 K	81.1 ± 0.27
305.91 K	81.42 ± 0.27
308.46 K	81.77 ± 0.27
310 K	81.91 ± 0.28
311.15 K	82.06 ± 0.27
313.7 K	82.4 ± 0.27
316.26 K	82.71 ± 0.27
318.8 K	83 ± 0.27
320 K	83.17 ± 0.28
321.35 K	83.28 ± 0.27
